Experiments:
[1] = test system: Plasma; assay: Antiplatelet activity in rat platelet-rich plasma assessed as inhibition of platelet aggregation; assay type: functional, cell-free
[2] = test system: Plasma; assay: Antiplatelet activity in human platelet-rich plasma assessed as inhibition of platelet aggregation; assay type: functional, cell-free

Compound | IC50 [1] [nM] | IC50 [2] [nM]
CCCC(=O)c1cnn(C2CCN(NC(=O)c3cn(CC(=O)N4CCN(C)CC4)c4ccc(Cl)cc34)CC2)c1C | 43 | 25
CCCC(=O)c1cnn([C@H]2CC[C@H](NC(=O)c3cn(CC(=O)N4CCN(C)CC4)c4ccc(Cl)cc34)CC2)c1C | 91 | 270

— ChEMBL document CHEMBL3392970, “Novel inhibitors of platelet aggregation” (ACS Med Chem Lett, 2015)
